One may read the MIC as the lowest concentration that inhibits growth of the organism. One may read the IC50 as the midpoint of a concentration-inhibition curve.

The subject of one data set is Bacillus subtilis. Description: Antibacterial activity against Bacillus subtilis BS01 assessed as bacterial growth inhibition. The format is functional.
For another data set, the system named is Micrococcus luteus. The data set is described as follows: Antibacterial activity against Micrococcus luteus ML01 assessed as bacterial growth inhibition. The format is functional.
The subject of data set [1] is Staphylococcus aureus. The data set is described as follows: Antibacterial activity against Staphylococcus aureus ATCC 29213 assessed as bacterial growth inhibition. The format is functional.
For data set [2], the system named is Staphylococcus aureus. Description: Antibacterial activity against methicillin-resistant Staphylococcus aureus shhs-E1 assessed as bacterial growth inhibition. The format is functional.
For data set [3], the system named is Staphylococcus aureus. The data set is described as follows: Antibacterial activity against methicillin-resistant Staphylococcus aureus 16339 assessed as bacterial growth inhibition. It is filed as functional.
Data set [4] concerns Staphylococcus aureus. The data set is described as follows: Antibacterial activity against methicillin-resistant Staphylococcus aureus 745524 assessed as bacterial growth inhibition. The format is functional.
In data set [5] the test system is Staphylococcus aureus. Description: Antibacterial activity against methicillin-resistant Staphylococcus aureus 16162 assessed as bacterial growth inhibition. The format is functional.
In data set [6] the test system is Staphylococcus aureus. Description: Antibacterial activity against methicillin-resistant Staphylococcus aureus 718306 assessed as bacterial growth inhibition. The format is functional.
For data set [7], the system named is Staphylococcus aureus. The data set is described as follows: Antibacterial activity against methicillin-resistant Staphylococcus aureus 6917 assessed as bacterial growth inhibition. The format is functional.
Data set [8] relates to Mycolicibacterium smegmatis. Description: Antibacterial activity against Mycobacterium smegmatis ATCC607 assessed as bacterial growth inhibition. It is filed as functional.
In data set [9] the test system is Helicobacter pylori. Description: Antibacterial activity against Helicobacter pylori G27 assessed as bacterial growth inhibition. The format is functional.
In data set [10] the test system is Helicobacter pylori. The data set is described as follows: Antibacterial activity against Helicobacter pylori 159 assessed as bacterial growth inhibition. The format is functional.
In data set [11] the test system is Candida albicans. Description: Antifungal activity against Candida albicans C5 assessed as fungal growth inhibition. It is filed as functional.
Data set [12] relates to Candida albicans. The data set is described as follows: Antifungal activity against Candida albicans ATCC SC5314 assessed as fungal growth inhibition. It is filed as functional.
The next data set concerns Cryptococcus neoformans. The data set is described as follows: Antifungal activity against Cryptococcus neoformans ATCC4906 assessed as fungal growth inhibition. The format is functional.
The test system of another data set is MCF7. The data set is described as follows: Cytotoxicity against human MCF7 cells assessed as reduction in cell viability after 72 hrs by MTT assay. The note with it: MCF7, 72 h. The format is functional, cell-based. A general note: Tetrazolium dyes change colour on reduction, which living cells bring about.
In a further data set the test system is HepG2. Description: Cytotoxicity against human HepG2 cells assessed as reduction in cell viability after 72 hrs by MTT assay. The note with it: HepG2, 72 h. It is filed as functional, cell-based.
Another data set has as its system HeLa. Description: Cytotoxicity against human HeLa cells assessed as reduction in cell viability after 72 hrs by MTT assay. It is filed as functional, cell-based.
In a further data set the test system is A549. The data set is described as follows: Cytotoxicity against human A549 cells assessed as reduction in cell viability by after 72 hrs MTT assay. The format is functional, cell-based. The note with it: A549, 72 h.
The test system of another data set is RKO. Description: Cytotoxicity against human RKO cells assessed as reduction in cell viability after 72 hrs by MTT assay. It is filed as functional, cell-based.
A further data set has as its system HL-60. The data set is described as follows: Cytotoxicity against human HL-60 cells assessed as reduction in cell viability after 72 hrs by MTT assay. It is filed as functional, cell-based. Conditions: HL-60, 72 h.
Data set [13] can be described thus: Cytotoxicity against human L02 cells assessed as reduction in cell viability after 72 hrs by MTT assay. The format is toxicity, cell-based.
Data set [14] in a line: Cytotoxicity against human BEAS-2B cells assessed as reduction in cell viability after 72 hrs by MTT assay. The format is toxicity, cell-based.

Converted amounts (≈) assume the structure as drawn.

`C/C1=C\C=C\CC[C@H](C)CNC(=O)/C=C/C=C/[C@H](C)[C@@H](O[C@H]2C[C@H](O)[C@H](N)[C@@H](C)O2)C/C=C(\C)C1`: the MIC amounted to 0.5 mg/L (≈ 1.03 µM) with Bacillus subtilis; 0.25 mg/L (≈ 0.514 µM) with Micrococcus luteus; 0.13 mg/L (≈ 0.267 µM) with Staphylococcus aureus [1]; 0.25 mg/L (≈ 0.514 µM) in the data set with Staphylococcus aureus [2]; 0.5 mg/L (≈ 1.03 µM) in the data set with Staphylococcus aureus [3]; 0.25 mg/L (≈ 0.514 µM) in the data set with Staphylococcus aureus [4]. For the same molecule, the MIC came out at 0.25 mg/L (≈ 0.514 µM) with Staphylococcus aureus [5]; 0.25 mg/L (≈ 0.514 µM) in the data set on Staphylococcus aureus [6]; 0.13 mg/L (≈ 0.267 µM) in the data set on Staphylococcus aureus [7]; 4 mg/L (≈ 8.22 µM) in data set [8]; 1 mg/L (≈ 2.05 µM) in the data set on Helicobacter pylori [9]; 1 mg/L (≈ 2.05 µM) with Helicobacter pylori [10]. For the same molecule, the MIC came to 2 mg/L (≈ 4.11 µM) with Candida albicans [11], 1 mg/L (≈ 2.05 µM) in the data set with Candida albicans [12] and 2 mg/L (≈ 4.11 µM) in the data set on Cryptococcus neoformans. Further, the IC50 in the data set on MCF7 amounted to 1.16 µM; in the data set with HepG2, 2.09 µM; with HeLa it was 1.29 µM; in the data set on A549 it was 1.33 µM; in the data set on RKO, 2.1 µM; with HL-60 it was 0.89 µM. Further, the IC50 at 72 h was found to be 5.36 µM in [13] and 3.23 µM in data set [14].

On to `C[C@@H]1[C@H](O)[C@@H](C)/C=C/C=C/C=C/C=C/C=C/C=C/C=C/[C@H](O[C@@H]2O[C@H](C)[C@@H](O)[C@H](N)[C@@H]2O)C[C@@H]2O[C@](O)(C[C@@H](O)C[C@@H](O)[C@H](O)CC[C@@H](O)C[C@@H](O)CC(=O)O[C@H]1C)C[C@H](O)[C@H]2C(=O)O` [AMPHOTERICIN B], for which the results for the MIC in the data set with Candida albicans [11], in the data set on Candida albicans [12] and in the data set on Cryptococcus neoformans were 1 mg/L (≈ 1.08 µM), 1 mg/L (≈ 1.08 µM) and 2 mg/L (≈ 2.16 µM), respectively.

On to `CC1(C)S[C@@H]2[C@H](NC(=O)[C@H](N)c3ccccc3)C(=O)N2[C@H]1C(=O)O` [AMPICILLIN], for which the results for the MIC (in data set [8]; with Helicobacter pylori [9]; in the data set on Helicobacter pylori [10]) were 64 mg/L (≈ 183 µM), 4 mg/L (≈ 11.4 µM) and 4 mg/L (≈ 11.4 µM), respectively.

As for `CN[C@H](CC(C)C)C(=O)N[C@H]1C(=O)N[C@@H](CC(N)=O)C(=O)N[C@H]2C(=O)N[C@H]3C(=O)N[C@H](C(=O)N[C@H](C(=O)O)c4cc(O)cc(O)c4-c4cc3ccc4O)[C@H](O)c3ccc(c(Cl)c3)Oc3cc2cc(c3O[C@@H]2O[C@H](CO)[C@@H](O)[C@H](O)[C@H]2O[C@H]2C[C@](C)(N)[C@H](O)[C@H](C)O2)Oc2ccc(cc2Cl)[C@H]1O` [VANCOMYCIN], the MIC with Bacillus subtilis is 0.13 mg/L (≈ 0.0897 µM); with Micrococcus luteus it was 0.13 mg/L (≈ 0.0897 µM); in the data set with Staphylococcus aureus [6], 0.25 mg/L (≈ 0.173 µM).

Regarding `CN[C@H]1[C@@H](O)C[C@H](O[C@H]2C/C=C(\C)C/C(C)=C/C=C/CC[C@H](C)CNC(=O)/C=C/C=C/[C@@H]2C)O[C@@H]1C` [VICENISTATIN], the minimum inhibitory concentration (MIC) in the data set on Bacillus subtilis was found to be 0.13 mg/L (≈ 0.26 µM); in the data set on Micrococcus luteus, 0.06 mg/L (≈ 0.12 µM); in the data set with Staphylococcus aureus [1], 0.06 mg/L (≈ 0.12 µM); with Staphylococcus aureus [2], 0.13 mg/L (≈ 0.26 µM); with Staphylococcus aureus [3], 0.06 mg/L (≈ 0.12 µM); with Staphylococcus aureus [4] it was 0.06 mg/L (≈ 0.12 µM). Also, the MIC with Staphylococcus aureus [5] was 0.13 mg/L (≈ 0.26 µM); with Staphylococcus aureus [6], 0.13 mg/L (≈ 0.26 µM); with Staphylococcus aureus [7], 0.06 mg/L (≈ 0.12 µM); in data set [8] it was over 64 mg/L; in the data set with Helicobacter pylori [9], 1 mg/L (≈ 2 µM); in the data set with Helicobacter pylori [10], 1 mg/L (≈ 2 µM). For the same molecule, the MIC was determined as 4 mg/L (≈ 7.99 µM) in the data set with Candida albicans [11], 4 mg/L (≈ 7.99 µM) with Candida albicans [12] and 2 mg/L (≈ 3.99 µM) in the data set on Cryptococcus neoformans. Further, the IC50 with MCF7 worked out at 0.8 µM; in the data set on HepG2, 2.01 µM; in the data set on HeLa it was 1.38 µM; in the data set on A549 it was 0.76 µM; with RKO it was 2.33 µM; with HL-60 it was 0.64 µM. For the same molecule, the figures for the IC50 at 72 h in data set [13] and in data set [14] were 0.89 µM and 1.4 µM, respectively.

The record behind these values is ChEMBL document CHEMBL5046263, “Characterization of the Aminosugar Biosynthetic and Regulatory Genes of Vicenistatin in Monodonata labio-Associated Streptomyces parvus SCSIO Mla-L010” (J Nat Prod, 2022).
